Source: patent publication US9163018B2, “Method of treatment of age-related macular degeneration (AMD)” (Prana Biotechnology Limited, priority 2006, dated 2015)

Columns and labels:
[1] = system: Abeta in extract of post-mortem human AD brain tissue; test: BAS: human brain amyloid solubilization assay; assay type: biochemical; details: for BAS max effect: max effect across the concentration range, referenced to baseline PBS; for BAS concentration or concentration range at which an effect is observed: units printed in each cell
Experimental: Assay 5. Human Brain Amyloid Solubilization Assay
This assay was performed in order to assess the ability of a test compound to mobilise Aβ, as an example form of amyloid, from the insoluble to the soluble phase of an extract of tissue from post mortem human AD brain.
Up to 0.5 g of plaque-bearing cortex without meninges was homogenized using a DIAX 900 homogenizer (Hendolph and Co, Kelheim, Germany) or other suitable device for three 30-second periods at full speed in 2 ml of ice-cold phosphate-buffered saline, pH 7.4. To obtain the phosphate-buffered saline-extractable fraction, the homogenate was centrifuged at 100,000×g for 30 min and the supernatant removed. Alternatively, the tissue was freeze dried then pulverized to form a powder which was then weighed out into aliquots for extraction as above. Supernatant, either freeze-dried and resuspended or in unconcentrated form, was dissolved in 200 μl of Tris-Tricine sodium dodecyl sulfate (SDS) sample buffer pH 8.3 containing 8% SDS, 10% 2-mercaptoethanol. Aliquots (10 μl) were then boiled for 10 minutes before SDS-polyacrylamide gel electrophoresis. The insoluble fraction of the cortical samples was obtained by resuspending the initial pelleted sample in 1 ml of phosphate-buffered saline, A 50-μl aliquot of this suspension was then boiled in […] of sample buffer as above.
Tris-Tricine polyacrylamide gel electrophoresis was performed by loading appropriately diluted samples on to 10% to 20% gradient gels (Novex, San Diego, Calif.) followed by transfer on to 0.2-μm nitrocellulose membrane (Bio-Rad, Hercules, Calif.). Aβ was detected by using monoclonal antibody W02, which detects residues 5 through 8, […] (or another suitable antibody) in conjunction with horseradish peroxidase-conjugated rabbit anti-mouse IgG (Dako, Denmark), and visualized by using enhanced chemiluminescence (eg ECL; Amersham Life Science, Buckinghamshire, UK). Each gel included three lanes containing 0.5, 1, and 2 ng of synthetic Aβ40 (Keck Laboratory, Yale University, New Haven, Conn.) as reference standards.
Blot films were scanned by using a suitable imaging system such as the UVP gel documentation system, and densitometry performed using suitable software, eg UVP Labworks. The dynamic range of the film/scanner was determined by using a step tablet (No. 911ST600, Kodak, Rochester N.Y.), a calibrated film exposed by the manufacturer to provided steps of known increasing intensity. The quantifiable range of signal intensity for densitometric analysis of the mono- and dimeric Aβ bands was based on the comparison with a curve obtained by scanning and densitometry of the step tablet.
All samples were analyzed at least twice, and gel loadings and dilutions were adjusted to fit within the quantifiable region of the standard curve. The proportion of ‘soluble’ to ‘insoluble’ Aβ may be used to determine the efficiency of extraction of a test compound compared with the efficiency of a known compound. The insoluble Aβ being comprised of the pelletable fraction derived from the insoluble amyloid plaque from the above cortical samples and the soluble fraction comprising monomeric and/or oligomeric soluble Aβ.

[2] = system: primary cortical neuronal cultured cells; test: Test compound cytotoxicity, MTS assay, primary cortical neuronal cultures; assay type: cell-based, mouse; details: for Cytotox (% viable) Neuronal cells at 1 μM: 1 μM test compound; for Cytotox (% viable) Neuronal cells at 10 μM: 10 μM test compound
Experimental: Assay 2. Neurotoxicity Assays
Primary Cortical Neuronal Cultures
Media was then replaced with Neurobasal media (Invitrogen Life Technologies) and B27 supplements (Invitrogen Life Technologies). Cultures were maintained at 37° C. in 5% CO2. Prior to experimentation, the culture medium was replaced with Neurobasal media and B27 minus antioxidants (Invitrogen Life Technologies).
Assay 3. MTS Assay for Cell Viability
Cell viability is determined using the MTS assay. Culture medium is replaced with fresh neurobasal medium plus B27 supplements minus antioxidants. 1/10th volume MTS solution (Cell Titre 96 Aqueous One, Promega Corporation) and incubated at 37° C., 2 hrs. 200 microliter aliquots are measured with a spectrophotometer at 560 nm.
Assay 4. Assay for Test Compound Cytoxicity
Neuronal cortical cells were cultured for five days as per Assay 2 in NB media and B27 supplement.
On day six the test compounds were added to the neuronal cell cultures in NB media and B27 supplement minus antioxidants.
Test compounds were dissolved in 100% DMSO to a concentration of 2.5 mM (10 mM if excess compound was weighed out per vial—then diluted to 2.5 mM).
Test compounds were not added directly to cells, instead they were added to a 48 well ‘Drug Plate’ as comprised below:
The Drug Plate was incubated at 37° C. for 15 mins. 200 μl of each well was added in triplicate to the corresponding cell plate. The cell plate was incubated at 37 C, for 4 days.
On completion of the assay, 1/10 volume MTS was added per well of plate (ie 25 μl/250 μl). The plates were incubated at 37 C for 2 hrs, and then absorbance was read at 560 nm.

Aβ 1-42 = target: T1, Aβ 1-42 (Homo sapiens, UniProt P05067); test: Fluorometric H2O2 assay (inhibition of Abeta H2O2 production); assay type: biochemical; details: concentration required to inhibit 50% of Abeta H2O2 production; read-out: H2O2 IC50
T1 construct: The reaction solutions contained Aβ 1-42 at concentrations
Experimental: Assay 1. Fluorometric H2O2 Assay
A fluorometric assay was used to test the ability of a test compound to inhibit hydrogen peroxide generation by Aβ in the presence of copper based on dichlorofluoroscein diacetate (DCF; Molecular Probes, Eugene Oreg.). The DCF solution (5 mM) in 100% dimethyl sulphoxide (previously purged with argon for 2 hr at 20° C.) was deacetylated in the presence of 0.25M NaOH for 30 min and neutralized at pH 7.4 to a final concentration of 1 mM. Horseradish peroxidase (HRP) stock solution was prepared to 1 μM at pH 7.4. The reactions were carried out in PBS, pH 7.4 in a 96 well plate (total volume=250 μl/well). […] The reaction mixture was incubated at 37 C for 60 min. […] H2O2 concentration may be established by comparing fluorescence with the H2O2 standards, Inhibition of Aβ H2O2 production was assayed by including a given concentration of test compound(s) in the test wells.

T1 sequence (P05067 672-713 limits assumed): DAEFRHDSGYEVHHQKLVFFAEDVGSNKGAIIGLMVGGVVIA

Compound | BAS max effect [1] | Cytotox (% viable) Neuronal cells at 1 μM [2] | Cytotox (% viable) Neuronal cells at 10 μM [2] | IC50 (Aβ 1-42) | BAS concentration or concentration range at which an effect is observed [1]
COc1cc(NS(=O)(=O)c2ccc(C)cc2)c2ncccc2c1 [PB 116] | 220% | 81% | 60% | 500 nM | –
Oc1c(Br)cc(-c2ccccc2)c2cccnc12 [PB 806] | 311% | 100% | 97% | < 900 nM | –
Oc1c(-c2ccccc2)cc(-c2ccccc2)c2cccnc12 [PB 809] | 146% | 97% | 26% | < 1800 nM | –
COc1cccc(-c2cc(Cl)c3cccnc3c2O)c1 [PB 810] | 184% | 83% | 71% | < 700 nM | –
COc1ccc(-c2cc(Cl)c3cccnc3c2O)cc1 [PB 814] | 209% | 97% | 31% | < 1100 nM | –
Cc1ccccc1-c1cc(-c2ccccc2C)c2cccnc2c1O [PB 852] | 220% | 93% | 34% | 2100 nM | –
Oc1c(Br)cc(-c2cc(F)cc(F)c2)c2cccnc12 [PB 853] | 221% | Neuronal cells: 95, 95% | Neuronal cells: 95, 95% | 770 nM | –
Cc1ccccc1-c1cc(Cl)c2cccnc2c1O [PB 854] | 520% | Neuronal cells: 100, 100% | Neuronal cells: 100, 100% | 780 nM | –
Cc1cccc(-c2cc(Cl)c3cccnc3c2O)c1 [PB 859] | 266% | 98% | 73% | < 670 nM | –
Oc1c(I)cc(-c2ccccc2C(F)(F)F)c2cccnc12 [PB 860] | 160% | 91% | 90% | 790 nM | –
COc1ccccc1-c1cc(-c2ccccc2OC)c2cccnc2c1O [PB 862] | 256% | 100% | 52% | < 770 nM | –
COc1ccccc1-c1cc(I)c(O)c2ncccc12 [PB 863] | 386% | 91% | 35% | < 730 nM | –
Oc1c(-c2ccccc2C(F)(F)F)cc(Cl)c2cccnc12 [PB 864] | 208% | 96% | 93% | 770 nM | –
Cc1ccc(-c2ccc(C)cn2)nc1 [PB 896] | 358% | – | Neuronal cells: 86% (at 10 uM) | 150 nM | –
FC(F)(F)CSc1cccc2cccnc12 [PB 913] | 450% | 100% | 95% | 990 nM | –
CN1CCCN(C)CCN(C)CCCN(C)CC1 [PB 933] | 279% | – | Neuronal cells: 127% (at 10 μM) | 110 nM | –
Oc1ccccc1-c1cc(Cl)c2cccnc2c1O [PB 947] | 244% | 100% | 70% | 1140 nM | –
O=C(NCCc1cnc[nH]1)c1ccc2cccc(O)c2n1 [PB 948] | 576% | 100, 100% | 100, 100% | 150 nM | –
O=C(NCc1ccccn1)c1ccc2cccc(O)c2n1 [PB 949] | 201% | 96% | 85% | 430 nM | –
O=C(NCCc1ccccn1)c1ccc2cccc(O)c2n1 [PB 950] | 741% | 95% | 93% | 150 nM | –
O=C(Nc1nccs1)c1ccc2cccc(O)c2n1 [PB 952] | 268% | Neuronal cells: 100, 100% | Neuronal cells: 100, 100% | 270 nM | –
Cc1cnc(NC(=O)c2ccc3cccc(O)c3n2)s1 [PB 953] | 325% | 94% | 68% | < 420 nM | –
O=C(NCCc1cnc[nH]1)c1cc(O)c2cccc(O)c2n1 [PB 954] | 134% | Neuronal cells: 100, 100% | Neuronal cells: 100, 100% | 120 nM | 1 µM
NCCNC(=O)c1ccc2cccc(O)c2n1 [PB 957] | 190% | 106% | 96% | > 10000 nM | 1 μM, 100 μM
O/N=C/c1ccc2cccc(O)c2n1 [PB 969] | 385% | 100% | 95% | 540 nM | –
O=C(CNC(=O)c1cc(O)c2cccc(O)c2n1)NCCc1c[nH]cn1 [PB 987] | 393% | 98% | 89% | 1800 nM | –
O=C(CNC(=O)c1cc(O)c2cccc(O)c2n1)NCc1ccccn1 [PB 988] | 137% | Neuronal cells: 93, 93% | Neuronal cells: 93, 93% | > 10000 nM | –
CN(CCc1ccccn1)Cc1ccc2cccc(O)c2n1 [PB 990] | 183% | 97% | 57% | 400 nM | –
Oc1cccc2ccc(CNCc3ccccn3)nc12 [PB 991] | 222% | 96% | 67% | 470 nM | –
